The values below come from ChEMBL document CHEMBL5728630, “Aryl, heteroaryl, and heterocyclic pharmaceutical compounds for treatment of medical disorders” (2021).

The target of the assay is Complement factor D (Homo sapiens, UniProt P00746). In words: Factor D Assay: Human Factor D (purified from human serum, Complement Technology, Inc.) at 80 nM final concentration is incubated with test compound at various concentrations for 5 min at room temperature in 50 mM Tris, 1M NaCl, pH 7.5. A synthetic substrate Z-L-Lys-SBz and DTNB (Ellman's reagent) are added to final concentrations of 100 μM each. Absorbance at 405 nm (A405) is recorded at 30 second intervals for 30 min using a microplate spectrophotometer. IC50 values are calculated by nonlinear regression of complement Factor D reaction rates as a function of test compound concentration.
Complement factor D, sequence (P00746 whole entry): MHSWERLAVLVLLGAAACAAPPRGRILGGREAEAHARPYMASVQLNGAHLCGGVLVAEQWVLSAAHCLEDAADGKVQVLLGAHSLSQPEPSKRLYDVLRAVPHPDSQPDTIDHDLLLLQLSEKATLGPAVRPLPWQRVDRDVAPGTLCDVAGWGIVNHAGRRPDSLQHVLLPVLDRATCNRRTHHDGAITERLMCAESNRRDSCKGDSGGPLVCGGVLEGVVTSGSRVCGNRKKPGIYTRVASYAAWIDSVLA
Consider `CC(=O)c1nn(CC(=O)N2[C@H](C(=O)Nc3nc(Br)ccc3C)C[C@@]3(CF)C[C@@H]23)c2c(C)cc(-c3cnc(C)nc3)cc12`, for which the IC50 was less than 1000 nM.

As to `CC(=O)c1nn(CC(=O)N2[C@H](C(=O)Nc3nc(Br)ccc3CN3CCc4ccccc4C3)C[C@@]3(C)C[C@@H]23)c2cnc(-c3cnc(C)nc3)cc12`, the half-inhibitory concentration (IC50) was less than 1000 nM. The same measure for `CC(=O)c1nn(CC(=O)N2[C@H](C(=O)Nc3nc(Br)ccc3C)C[C@@]3(C)C[C@@H]23)c2c(C(C)F)cc(-c3cnc(C)nc3)cc12` (stereo not given in full): less than 1000 nM; for `CC(=O)c1nn(CC(=O)N2[C@H](C(=O)Nc3nc(Br)ccc3C)C[C@@]3(C)C[C@@H]23)c2c(C)cc(-c3cnc(C4(F)COC4)nc3)cc12`: less than 1000 nM. The same measure for `CC(=O)c1nn(CC(=O)N2[C@H](C(=O)Nc3nc(Br)ccc3C)C[C@@]3(C)C[C@@H]23)c2ccc(-c3cnc(O)nc3)cc12`: less than 1000 nM; for `COCc1ccc(Br)nc1NC(=O)[C@@H]1C[C@@]2(C)C[C@H]2N1C(=O)Cn1nc(C(C)=O)c2cc(-c3cnc(C)nc3)cc(COC)c21`: less than 1000 nM.

`COc1ncc(-c2cc3c(C(C)=O)nn(CC(=O)N4[C@H](C(=O)Nc5nc(Br)ccc5C)C[C@@]5(C)C[C@@H]45)c3c(C)n2)cn1`: the IC50 was less than 1000 nM. For the compound `CC(=O)c1nn(CC(=O)N2[C@H](C(=O)Nc3nc(Br)ccc3C)C[C@@]3(CN4CC(F)(F)C4)C[C@@H]23)c2cnc(-c3cnc(C)nc3)cc12`, the 50% inhibitory concentration (IC50) was less than 1000 nM. Take `CC(=O)c1nn(CC(=O)N2[C@H](C(=O)Nc3nc(Br)ccc3C)C[C@@]3(C4COC(C)(C)O4)C[C@@H]23)c2cnc(-c3cnc(C)nc3)cc12` (stereo not given in full): the half-inhibitory concentration (IC50) is less than 1000 nM. In the case of `CC(=O)c1nn(CC(=O)N2[C@H](C(=O)Nc3cccc(-c4ccccc4Cl)c3F)C[C@@]3(C)C[C@@H]23)c2ccc(-c3cnc(C)nc3)cc12`, the 50% inhibitory concentration (IC50) was less than 1000 nM.

Take `COCc1ccc(Br)nc1NC(=O)[C@@H]1C[C@@]2(CNC(C)=O)C[C@H]2N1C(=O)Cn1nc(C(C)=O)c2cc(-c3cnc(C)nc3)ccc21`: the IC50 is less than 1000 nM.

As for `CC(=O)c1nn(CC(=O)N2[C@H](C(=O)Nc3nc(Br)ccc3C)C[C@@]3(CF)C[C@@H]23)c2cnc(-c3cnc(C)nc3)cc12`, the half-maximal inhibitory concentration (IC50) was less than 1000 nM.

Turning to `CC(=O)c1nn(CC(=O)N2[C@H](C(=O)Nc3cnc(C)c(Br)n3)C[C@@]3(C)C[C@@H]23)c2c(C)cc(-c3cnc(C)nc3)cc12`, the IC50 is less than 1000 nM. The same measure for `CC(=O)c1nn(CC(=O)N2[C@H](C(=O)Nc3nc(Br)ccc3C)C[C@@]3(CNC(=O)C4CCCC4(F)F)C[C@@H]23)c2ccc(-c3cnc(C)nc3)cc12` (stereo not given in full): less than 1000 nM; for `CC(=O)c1nn(CC(=O)N2[C@H](C(=O)N[C@H](C)[C@H]3CC3(Cl)Cl)C[C@@]3(C)C[C@@H]23)c2c(C)cc(-c3cnc(C)nc3)cc12`: less than 1000 nM. As to `CC(=O)c1nn(CC(=O)N2[C@H](C(=O)Nc3nc(Br)ccc3C)C[C@@]3(CCCF)C[C@@H]23)c2cnc(-c3cnc(C)nc3)cc12`, the IC50 is less than 1000 nM.

With `CC(=O)c1nn(CC(=O)N2[C@H](C(=O)Nc3nc(Br)ccc3C)C[C@@]3(/C=N/O)C[C@@H]23)c2cnc(-c3cnc(C)nc3)cc12`, the 50% inhibitory concentration (IC50) was less than 1000 nM. For `CC(=O)c1nn(CC(=O)N2[C@H](C(=O)Nc3cccc(Br)n3)C[C@@]3(C)C[C@@H]23)c2ccc(-c3cnc(O)nc3)cc12` the value was less than 1000 nM; for `CC[C@@]12C[C@@H](C(=O)Nc3nc(Br)ccc3C)N(C(=O)Cn3nc(C(C)=O)c4cc(-c5cnc(C)nc5)ncc43)[C@@H]1C2`, less than 1000 nM; for `C=CCCS(=O)(=O)NC[C@@]12C[C@@H](C(=O)Nc3nc(Br)ccc3C=C)N(C(=O)Cn3nc(C(C)=O)c4cc(-c5cnc(C)nc5)ccc43)[C@@H]1C2`, less than 1000 nM.

As to `CC(=O)c1nn(CC(=O)N2[C@H](C(=O)Nc3nc(Br)ccc3C)C[C@@]3(CC#N)C[C@@H]23)c2c(C)cc(-c3cnc(C)nc3)cc12`, the IC50 was less than 1000 nM. For `CC(=O)c1nn(CC(=O)N2[C@H](C(=O)Nc3nc(Br)ccc3C)C[C@@]3(C)C[C@@H]23)c2ccc(-c3cnc(OC4CS(=O)(=O)C4)nc3)cc12` the value was less than 1000 nM; for `CC(=O)c1nn(CC(=O)N2[C@H](C(=O)Nc3nc(Br)ccc3C)C[C@@]3(C)C[C@@H]23)c2c(C(F)(F)F)nc(-c3cnc(C)nc3)cc12`, less than 1000 nM; for `COC(=O)Cc1ccc(Br)nc1NC(=O)[C@@H]1C[C@@H](F)CN1C(=O)Cn1nc(C(C)=O)c2cc(-c3cnc(C)nc3)ccc21`, less than 1000 nM.

Regarding `COCc1ncc(-c2cc3c(C(C)=O)nn(CC(=O)N4[C@H](C(=O)Nc5nc(Br)ccc5C)C[C@@]5(C)C[C@@H]45)c3cn2)cn1`, the IC50 is less than 1000 nM. For the compound `Cc1ncc(-c2ccc3c(c2)c(C(N)=O)nn3CC(=O)N2[C@H](C(=O)Nc3nc(Br)ccc3C)C[C@@]3(C)C[C@@H]23)cn1`, the IC50 is less than 1000 nM. Consider `CC(=O)c1nn(CC(=O)N2[C@H]3C[C@@]3(C)C[C@H]2C(=O)Nc2nc(Br)ccc2C)c2ccc(-c3cnc(C)nc3)cc12`, for which the IC50 is less than 1000 nM. For `CC(=O)c1nn(CC(=O)N2[C@H](C(=O)Nc3nc(Br)ccc3C)C[C@@]3(CC#N)C[C@@H]23)c2cnc(-c3cnc(C)nc3)cc12` the value was less than 1000 nM; for `CC(=O)c1nn(CC(=O)N2[C@H](C(=O)Nc3cccc(-c4ccccc4Cl)c3F)C[C@@]3(C)C[C@@H]23)c2c(C)cc(-c3cnc(C)nc3)cc12`, less than 1000 nM; for `CC(=O)c1nn(CC(=O)N2[C@H](C(=O)N[C@H](C)[C@H]3CC3(Cl)Cl)C[C@@]3(C)C[C@@H]23)c2cnc(-c3cnc(C)nc3)cc12`, less than 1000 nM.

For `CC(=O)c1nn(CC(=O)N2[C@H](C(=O)Nc3nc(Br)ccc3C)C[C@@]3(CNC(=O)C4CCCC4(F)F)C[C@@H]23)c2c(C)cc(-c3cnc(C)nc3)cc12` (stereo not given in full), the half-inhibitory concentration (IC50) is less than 1000 nM. As for `CC(=O)c1nn(CC(=O)N2[C@H](C(=O)Nc3nc(Br)ccc3C)C[C@@]3(CNCc4ccccc4F)C[C@@H]23)c2c(C)cc(-c3cnc(C)nc3)cc12`, the IC50 is less than 1000 nM. In the case of `COCc1ccc(Br)nc1NC(=O)[C@@H]1C[C@@]2(CN(C)C)C[C@H]2N1C(=O)Cn1nc(C(C)=O)c2cc(-c3cnc(C)nc3)ccc21`, the IC50 is less than 1000 nM. For `CC(=O)c1nn(CC(=O)N2C[C@H](F)C[C@H]2C(=O)Nc2nc(Br)ccc2C)c2ccc(-c3cnc(OC4CS(=O)(=O)C4)nc3)cc12` the value was less than 1000 nM; for `CC(=O)c1nn(CC(=O)N2[C@H](C(=O)Nc3nc(Br)ccc3C)C[C@@]3(C)C[C@@H]23)c2c(C)cc(-c3cnc(O)nc3)cc12`, less than 1000 nM; for `CC(=O)c1nn(CC(=O)N2[C@H](C(=O)Nc3nc(Br)ccc3C)C[C@@]3(CNCC(F)(F)F)C[C@@H]23)c2c(C)cc(-c3cnc(C)nc3)cc12`, less than 1000 nM. For `CC(=O)c1nn(CC(=O)N2[C@H](C(=O)Nc3nc(Br)ccc3C)C[C@@]3(CNC(=O)C(F)(F)F)C[C@@H]23)c2c(C)cc(-c3cnc(C)nc3)cc12` the value was less than 1000 nM. For `Cc1ncc(-c2cc(C)c3c(c2)c(C2COC2)nn3CC(=O)N2[C@H](C(=O)Nc3nc(Br)ccc3C)C[C@@]3(C)C[C@@H]23)cn1` the value was less than 1000 nM. `CC(=O)c1nn(CC(=O)N2[C@H](C(=O)Nc3nc(Br)ccc3C)C[C@@]3(C)C[C@@H]23)c2cnc(-c3ccc(C)nc3F)cc12`: the half-inhibitory concentration (IC50) was less than 1000 nM.

For the compound `CC(=O)c1nn(CC(=O)N2[C@H](C(=O)Nc3cccc(Br)n3)C[C@@]3(C)C[C@@H]23)c2ccc(-c3cnc(OC4CS(=O)(=O)C4)nc3)cc12`, the IC50 was less than 1000 nM. Consider `CC(=O)c1nn(CC(=O)N2[C@H](C(=O)Nc3nc(Br)ccc3C)C[C@@]3(C)C[C@@H]23)c2c(C)cc(-c3cnc(C4(O)COC4)nc3)cc12`, for which the IC50 was less than 1000 nM. As to `COC[C@@]12C[C@@H](C(=O)Nc3nc(Br)ccc3C)N(C(=O)Cn3nc(C(C)=O)c4cc(-c5cnc(C)nc5)ncc43)[C@@H]1C2`, the IC50 was less than 1000 nM.

As for `Cc1ncc(-c2cc3c(C(N)=O)nn(CC(=O)N4[C@H](C(=O)Nc5nc(Br)c(F)cc5C)C[C@@]5(C)C[C@@H]45)c3cn2)cn1`, the IC50 is less than 1000 nM.

For the compound `CC(=O)c1nn(CC(=O)N2[C@H](C(=O)Nc3nc(Br)ccc3C)C[C@@]3(C#N)C[C@@H]23)c2cnc(-c3cnc(C)nc3)cc12`, the half-inhibitory concentration (IC50) was less than 1000 nM. `CC(=O)c1nn(CC(=O)N2[C@H](C(=O)Nc3nc(Br)ccc3C)C[C@@]3(Cn4cc(C5CC5)nn4)C[C@@H]23)c2cnc(-c3cnc(C)nc3)cc12`: the half-inhibitory concentration (IC50) was less than 1000 nM. The same measure for `CC(=O)c1nn(CC(=O)N2[C@H](C(=O)Nc3cccc(Br)n3)C[C@@]3(C)C[C@@H]23)c2c(C)cc(-c3cnc(C)nc3)cc12`: less than 1000 nM. For `CC(=O)c1nn(CC(=O)N2[C@H](C(=O)Nc3nc(Br)ccc3C)C[C@@]3(CNCc4ccccc4)C[C@@H]23)c2c(C)cc(-c3cnc(C)nc3)cc12` the value was less than 1000 nM; for `CC(=O)c1nn(CC(=O)N2[C@H](C(=O)Nc3nc(Br)ccc3COCCF)C[C@@]3(C)C[C@@H]23)c2cnc(-c3cnc(C)nc3)cc12`, less than 1000 nM; for `CC(=O)c1nn(CC(=O)N2[C@@H](C(=O)Nc3nc(Br)ccc3C)C[C@]3(C)C[C@H]23)c2ccc(-c3cnc(C)nc3)cc12`, more than 10000 nM. As for `CC(=O)c1nn(CC(=O)N2[C@H](C(=O)Nc3nc(Br)ccc3C)C[C@@]3(CN4CC(O)C4)C[C@@H]23)c2c(C)cc(-c3cnc(C)nc3)cc12`, the IC50 was less than 1000 nM. For `CC(=O)c1nn(CC(=O)N2[C@H]3C[C@@]3(CF)C[C@H]2C(=O)Nc2nc(Br)ccc2C)c2cnc(-c3cnc(C)nc3)cc12` the value was less than 1000 nM; for `CC(=O)c1nn(CC(=O)N2[C@H](C(=O)N[C@@H](C)C(F)=C(C)C)C[C@@]3(C)C[C@@H]23)c2cnc(-c3cnc(C)nc3)cc12`, less than 1000 nM; for `C=CCCc1cc(-c2cnc(C)nc2)cc2c(C(C)=O)nn(CC(=O)N3[C@H](C(=O)Nc4nc(Br)ccc4C)C[C@@]4(COCC=C)C[C@@H]34)c12`, less than 1000 nM. Regarding `CC(=O)c1nn(CC(=O)N2[C@H](C(=O)NCc3cccc(Cl)c3F)C[C@@]3(C)C[C@@H]23)c2c(C)cc(-c3cnc(C)nc3)cc12`, the IC50 was less than 1000 nM. The same measure for `CC(=O)c1nn(CC(=O)N2[C@H](C(=O)Nc3nc(Br)ccc3C)C[C@@]3(CN4CC(O)C4)C[C@@H]23)c2cnc(-c3cnc(C)nc3)cc12`: less than 1000 nM.
